Measurements reported in ChEMBL document CHEMBL5724914, “Linking interpersonal differences in gut microbiota composition and drug biotransformation activity” (2024).

Legend:
[1] = human gut metagenome, 24 h, 2 µM
[2] = (§1) The drug is tested on WLS-027 corresponding to human gut metagenome with ENA study accession number: PRJEB37062 and ENA sample accession number: ERS12561744 for biotransformation under anaerobic condition. The drug concentrations were measured over 9 timepoints collected between 0 and 24 hours of incubation by liquid-chromatography-coupled mass spectrometry (LC–MS); details: 2 µM
[3] = human gut metagenome, 24 h, 2 µM; remark: listed apart in the source
[4] = as §1, with “Z-006” for “WLS-027”, “mouse” for “human”, “ERS12561806” for “ERS12561744”; details: 2 µM
[5] = as §1, with “Z-029” for “WLS-027”, “rat” for “human”, “ERS12561828” for “ERS12561744”; details: 2 µM
[6] = as §1, with “WLS-069” for “WLS-027”, “ERS12561748” for “ERS12561744”; details: 2 µM
[7] = human gut metagenome, 24 h, 2 µM; remark: listed apart in the source
[8] = as §1, with “WLS-220” for “WLS-027”, “ERS12561769” for “ERS12561744”; details: 2 µM
[9] = human gut metagenome, 24 h, 2 µM; remark: listed apart in the source
[10] = as §1, with “Z-008” for “WLS-027”, “to” for “to human gut”, “ERS12561808” for “ERS12561744”; details: 2 µM
[11] = human gut metagenome, 24 h, 2 µM; remark: listed apart in the source
[12] = as §1, with “WLS-170” for “WLS-027”, “ERS12561762” for “ERS12561744”; details: 2 µM
[13] = human gut metagenome, 24 h, 2 µM; remark: listed apart in the source
[14] = as §1, with “Z-011” for “WLS-027”, “mouse” for “human”, “ERS12561811” for “ERS12561744”; details: 2 µM
[15] = human gut metagenome, 24 h, 2 µM; remark: listed apart in the source
[16] = as §1, with “WLS-039” for “WLS-027”, “ERS12561746” for “ERS12561744”; details: 2 µM
[17] = as §1, with “Z-002” for “WLS-027”, “rabbit” for “human”, “ERS12561802” for “ERS12561744”; details: 2 µM
[18] = human gut metagenome, 24 h, 2 µM; remark: listed apart in the source
[19] = as §1, with “Z-014” for “WLS-027”, “rat” for “human”, “ERS12561814” for “ERS12561744”; details: 2 µM
[20] = human gut metagenome, 24 h, 2 µM; remark: listed apart in the source
Also: call rule not given here.

SMILES	Bacterial Biotransformation [1]	Bacterial Biotransformation [2]	Bacterial Biotransformation [3]	Bacterial Biotransformation [4]	Bacterial Biotransformation [5]	Bacterial Biotransformation [6]	Bacterial Biotransformation [7]	Bacterial Biotransformation [8]	Bacterial Biotransformation [9]	Bacterial Biotransformation [10]	Bacterial Biotransformation [11]	Bacterial Biotransformation [12]	Bacterial Biotransformation [13]	Bacterial Biotransformation [14]	Bacterial Biotransformation [15]	Bacterial Biotransformation [16]	Bacterial Biotransformation [17]	Bacterial Biotransformation [18]	Bacterial Biotransformation [19]	Bacterial Biotransformation [20]
COc1ccc2c3c1O[C@H]1C[C@@H](O)C=C[C@@]31CCN(C)C2 [GALANTAMINE]	Compound metabolized	Compound NOT metabolized	Compound metabolized	Compound NOT metabolized	Compound NOT metabolized	Compound NOT metabolized	Compound NOT metabolized	Compound metabolized	Compound metabolized	Compound NOT metabolized	Compound NOT metabolized	Compound metabolized	Compound metabolized	Compound NOT metabolized	Compound metabolized	Compound NOT metabolized	Compound metabolized	Compound NOT metabolized	Compound NOT metabolized	Compound NOT metabolized
Cc1ccc(S(=O)(=O)NC(=O)NN2CC3CCCC3C2)cc1 (stereo not given) [GLICLAZIDE]	Compound metabolized	Compound metabolized	Compound metabolized	Compound metabolized	Compound NOT metabolized	Compound metabolized	Compound metabolized	Compound metabolized	Compound metabolized	Compound NOT metabolized	Compound metabolized	Compound metabolized	Compound metabolized	Compound metabolized	Compound metabolized	Compound metabolized	Compound metabolized	Compound NOT metabolized	Compound NOT metabolized	Compound metabolized
COC1=CC(=O)C[C@@H](C)[C@]12Oc1c(Cl)c(OC)cc(OC)c1C2=O [GRISEOFULVIN]	Compound metabolized	Compound metabolized	Compound metabolized	Compound metabolized	Compound NOT metabolized	Compound metabolized	Compound metabolized	Compound metabolized	Compound metabolized	Compound NOT metabolized	Compound metabolized	Compound metabolized	Compound metabolized	Compound metabolized	Compound metabolized	Compound metabolized	Compound metabolized	Compound metabolized	Compound metabolized	Compound metabolized
N#Cc1ccc(C(c2ccc(C#N)cc2)n2cncn2)cc1 [LETROZOLE]	Compound NOT metabolized	Compound NOT metabolized	Compound NOT metabolized	Compound NOT metabolized	Compound metabolized	Compound NOT metabolized	Compound NOT metabolized	Compound NOT metabolized	Compound NOT metabolized	Compound NOT metabolized	Compound NOT metabolized	Compound NOT metabolized	Compound NOT metabolized	Compound NOT metabolized	Compound NOT metabolized	Compound NOT metabolized	Compound metabolized	Compound NOT metabolized	Compound NOT metabolized	Compound NOT metabolized
CC(Oc1c(Cl)cccc1Cl)C1=NCCN1 (stereo not given) [LOFEXIDINE]	Compound metabolized	Compound metabolized	Compound metabolized	Compound NOT metabolized	Compound NOT metabolized	Compound NOT metabolized	Compound NOT metabolized	Compound NOT metabolized	Compound NOT metabolized	Compound NOT metabolized	Compound NOT metabolized	Compound metabolized	Compound NOT metabolized	Compound NOT metabolized	Compound metabolized	Compound NOT metabolized	Compound metabolized	Compound NOT metabolized	Compound NOT metabolized	Compound metabolized
CN(C)C(=O)C(CCN1CCC(O)(c2ccc(Cl)cc2)CC1)(c1ccccc1)c1ccccc1 [LOPERAMIDE]	Compound metabolized	Compound metabolized	Compound metabolized	Compound metabolized	Compound NOT metabolized	Compound metabolized	Compound metabolized	Compound metabolized	Compound metabolized	Compound NOT metabolized	Compound metabolized	Compound metabolized	Compound metabolized	Compound NOT metabolized	Compound metabolized	Compound metabolized	Compound metabolized	Compound metabolized	Compound metabolized	Compound metabolized
CCCCc1nc(Cl)c(CO)n1Cc1ccc(-c2ccccc2-c2nn[nH]n2)cc1 [LOSARTAN]	Compound metabolized	Compound metabolized	Compound metabolized	Compound NOT metabolized	Compound metabolized	Compound metabolized	Compound NOT metabolized	Compound metabolized	Compound metabolized	Compound NOT metabolized	Compound metabolized	Compound metabolized	Compound metabolized	Compound NOT metabolized	Compound metabolized	Compound NOT metabolized	Compound NOT metabolized	Compound NOT metabolized	Compound NOT metabolized	Compound metabolized
COC(=O)Nc1nc2ccc(C(=O)c3ccccc3)cc2[nH]1 [MEBENDAZOLE]	Compound metabolized	Compound metabolized	Compound metabolized	Compound metabolized	Compound metabolized	Compound metabolized	Compound metabolized	Compound metabolized	Compound metabolized	Compound metabolized	Compound metabolized	Compound metabolized	Compound metabolized	Compound metabolized	Compound metabolized	Compound metabolized	Compound metabolized	Compound metabolized	Compound NOT metabolized	Compound metabolized
